Earlier results, collected in paper PMC5289470, “The biodistribution of 5-[^18F]fluoropyrazinamide in Mycobacterium tuberculosis-infected mice determined by positron emission tomography” (PLoS ONE, 2017).

Test system: PZA-resistant M. tuberculosis isolates
Details: ref [14], [30]; cited from earlier work

## NC(=O)c1cnc(Cl)cn1 [5-Cl-PZA, 5-Chloropyrazinamide]
  in vitro activity against PZA-resistant M. tuberculosis isolates: has in vitro activity
